Data from patent US20090304744A1, “METHODS OF ENHANCING IMMUNE RESPONSE IN THE INTRADERMAL COMPARTMENT AND COMPOUNDS USEFUL THEREOF” (priority 2003, published 2009).
Like-named read-outs stand apart in the source and are kept apart here.

Columns and labels:
[1] = test system: influenza antigen (Influenza APR834); format: in vivo, Balb/c mice; details: for Trend in immune response as indicated by ELISA signal (1:123 serum screening dilution): mice
swine skin = details: for tolerated amphotericin per dose / tolerated total amphotericin per dose: Draize score 1 hour post administration; for Erythema Draize scores (tolerability): Tween 80 5%, Deoxycholate 0.1%, D-sorbitol 5%, Lutrol 15%, without antigen, 200 ul per injection, 31 gauge 1.5 mm, 1 h and 24 h readings
guinea pig skin = test: Guinea pig erythema Draize scoring after ID delivery of excipients; format: in vivo, Hartley guinea pigs; details: Tween 80 5%, Deoxycholate 0.1%, D-sorbitol 5%, Lutrol 15%; without antigen, 50 ul per injection, 34 gauge 1.0 mm; immediate, 1 h and 24 h readings
From the text: The methods of the invention provide fundamental principles and guidelines whereby optimum parameters may be determined for delivering immunogenic compositions to the dermal compartment (including epidermal and intradermal compartments) wherein the excipients have optimum adjuvant properties and the formulations of the invention have enhanced efficacy in comparison to when the same formulation is delivered using conventional modes of delivery, including intramuscular and subcutaneous delivery. The invention provides methods wherein the formulations of the invention have been screened to have optimum concentration ranges for delivery to the optimum depth of the intradermal compartment such that they have adjuvant properties, resulting in one or more of the following properties: minimal to no skin irritation as determined and assessed using conventional modes of analysis of skin reactions using visual methods such as Draize scoring (For a typical draize scoring analysis see table below); minimal to no hemolysis as determined using standard methods known in the art, and enhanced immune response as measured by enhanced seroconversion and/or enhanced antibody titers.
Erythema Draize scores for various excipients were determined using procedures described in Section 5.4, above. In one study, Tween™ 80 (5%), Deoxycholate (0.1%), D-sorbitol (5%) or Lutrol™ (15%) was administered (50 μl per injection) without the antigen to Hartley guinea pigs using 34 gauge, 1.0 mm needles. […] Deeper administrations will be necessary for deoycholate to be used reliably at this concentration. From left to right, the reading immediately after administration, the one-hour reading and the 24-hour reading.

[2] = test system: trivalent test antigen (New Calcdonia, Panama and B-Hong Kong); design: species or system Hartley Guinea Pigs; details: guinea pig, in vivo
[3] = Yorkshire swine, 1.5 mm depth, listed as Amp-B

C[C@@H]1[C@H](O)[C@@H](C)/C=C/C=C/C=C/C=C/C=C/C=C/C=C/[C@H](O[C@@H]2O[C@H](C)[C@@H](O)[C@H](N)[C@@H]2O)C[C@@H]2O[C@](O)(C[C@@H](O)C[C@@H](O)[C@H](O)CC[C@@H](O)C[C@@H](O)CC(=O)O[C@H]1C)C[C@H](O)[C@H]2C(=O)O [Amphotericin B, reference compound]
Trend in immune response as indicated by ELISA signal (1:123 serum screening dilution) ([1]; excipient 20 ng/ml with FLUZONE, ID): 0.975
Trend in immune response as indicated by ELISA signal (1:123 serum screening dilution) ([1]; excipient 60 ng/ml with FLUZONE, ID): 1.575
Trend in immune response as indicated by ELISA signal (1:123 serum screening dilution) ([1]; excipient 180 ng/ml with FLUZONE, ID): 1.018
tolerated amphotericin per dose (swine skin; Yorkshire swine, 1.5 mm depth): up to 600 ng/100 ul
tolerated total amphotericin per dose (swine skin; Yorkshire swine, 1.5 mm depth): ≤ 1200 ng/200 ul
tolerated amphotericin per dose (swine skin; [3]): 600 ng/100 ul
tolerated total amphotericin per dose (swine skin; [3]): 1200 ng/200 ul
tolerability by Draize score analysis (swine skin; alone and as a mixture with FLUZONE vaccine, 1.5 mm depth, Yorkshire swine): well tolerated

oxtoxynol 9 [Triton N-101]
Trend in immune response as indicated by ELISA signal (1:123 serum screening dilution) ([1]; excipient 0.13% w/v with FLUZONE, ID): 0.805
Trend in immune response as indicated by ELISA signal (1:123 serum screening dilution) ([1]; excipient 1.3% w/v with FLUZONE, ID): 2.035

NC(N)=O [Urea]
Trend in immune response as indicated by ELISA signal (1:123 serum screening dilution) ([1]; excipient 1% w/v with FLUZONE, ID): 0.979
Trend in immune response as indicated by ELISA signal (1:123 serum screening dilution) ([1]; excipient 5% w/v with FLUZONE, ID): 1.585
Trend in immune response as indicated by ELISA signal (1:123 serum screening dilution) ([1]; excipient 20% w/v with FLUZONE, ID): 1.555

OC[C@@H](O)[C@@H](O)[C@H](O)[C@@H](O)CO [D-sorbitol]
Erythema Draize scores (tolerability) (guinea pig skin): reasonably well-tolerated
serum titer enhancement vs equal amount of Fluzone without sorbitol ([1]; Fluzone supplemented with sorbitol, ID, six point ELISA): 3 ×
Trend in immune response as indicated by ELISA signal (1:123 serum screening dilution) ([1]; excipient 2% w/v with FLUZONE, ID): 1.062
Trend in immune response as indicated by ELISA signal (1:123 serum screening dilution) ([1]; excipient 10% w/v with FLUZONE, ID): 1.102
Trend in immune response as indicated by ELISA signal (1:123 serum screening dilution) ([1]; excipient 58% w/v with FLUZONE, ID): 1.58
erythema (swine skin; 10% W/V, 1-2 mm depth, 20-24 hours post administration, Yorkshire swine): mild erythema
tolerability (swine skin; 10%, delivered to 1-2 mm depth, Yorkshire swine): well tolerated
Erythema Draize scores (tolerability) (swine skin): reasonably well-tolerated

CCO [Ethanol]
Trend in immune response as indicated by ELISA signal (1:123 serum screening dilution) ([1]; excipient 0.05% v/v with FLUZONE, ID): 0.901
Trend in immune response as indicated by ELISA signal (1:123 serum screening dilution) ([1]; excipient 0.15% v/v with FLUZONE, ID): 2.742
Trend in immune response as indicated by ELISA signal (1:123 serum screening dilution) ([1]; excipient 0.45% v/v with FLUZONE, ID): 1.530

O=S([O-])O.[Na+] [Sodium Bisulfite]
Trend in immune response as indicated by ELISA signal (1:123 serum screening dilution) ([1]; excipient 0.3% w/v with FLUZONE, ID): 0.808
Trend in immune response as indicated by ELISA signal (1:123 serum screening dilution) ([1]; excipient 0.9% w/v with FLUZONE, ID): 1.833
Trend in immune response as indicated by ELISA signal (1:123 serum screening dilution) ([1]; excipient 2.7% w/v with FLUZONE, ID): 2.048

Triton X-100
Trend in immune response as indicated by ELISA signal (1:123 serum screening dilution) ([1]; excipient 0.0001% w/v with FLUZONE, ID): 1.321
Trend in immune response as indicated by ELISA signal (1:123 serum screening dilution) ([1]; excipient 0.0009% w/v with FLUZONE, ID): 1.214

C[C@H](CCC(=O)[O-])[C@H]1CC[C@H]2[C@@H]3CC[C@@H]4C[C@H](O)CC[C@]4(C)[C@H]3C[C@H](O)[C@]12C.[Na+] [Deoxycholate, sodium deoxycholate]
Erythema Draize scores (tolerability) (guinea pig skin): just above the acceptable draize score
animals seroconverted 21 days after immunization ([1]; DOC-supplemented (0.1% sodium deoxycholate) FLUZONE, ID, Balb/c mice): 5 of 5
median titer ([1]; ID formulation containing 0.1% sodium deoxycholate vs IM and ID without, Balb/c mice): best median titer
Erythema Draize scores (tolerability) (swine skin): just above the acceptable draize score
skin compatibility (swine skin; deoxycholate 0.05 and 0.1% +/- trivalent vaccine, 1.5 mm depth, Yorkshire swine): performed well
skin compatibility (swine skin; deoxycholate 0.5% W/V and higher, 1.5 mm depth): could not be tolerated
hemagglutin specific titer vs FLUZONE alone ID and FLUZONE alone IM [2]: outperformed
